Results from US20230233425A1, “USE OF VOLATILE COMPOSITIONS TO LIMIT OR ELIMINATE THE PERCEPTION OF MALODOR” (Firmenich SA, priority 2017, published 2023).
Several values for one entry are separate records, joined by “and”; a condition that tells them apart may be missing. Equal values may be shown once. Read-outs that look alike come from different tables or passages of the source. Marks after values point to notes of the source that are not given here.

Assays:
[1] = test system: geonol malodor (earthy/moss odor) perception; assay: Sensory evaluation of geonol earthy/moss odor in iso-intense binary mixtures (glass jars); type: in vivo, human; conditions: iso-intense binary mixture
Text: Sensory Evaluation: Five 16 oz glass jars containing either REF (geonol only), geonol only control, antagonist only, mixture of geonol and isointense antagonist, or mixture of geonol and low intensity antagonist were presented to the panelists (last four samples were randomized across panelists). The panelists were asked to familiarize themselves with the earthy/moss odor quality from the REF jar first, then rate the pleasantness, earthy/moss odor intensity and overall odor intensity of the next four samples on a 0-10 linear scale. The inter-stimulus interval between the samples was two minutes to avoid adaptation.

[2] = test system: geonol earthy/moss odor perception; assay: Human sensory performance of test compounds with and without geonol; type: in vivo; conditions: for % Earthy/Moss Odor: Test Compound Only
In short: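 Panelists first learned the earthy/moss quality from a geonol-only reference, then rated pleasantness, earthy/moss intensity and overall intensity of geonol alone, antagonist alone, and geonol mixed with isointense or low-intensity antagonist on a 0-10 linear scale. Samples were presented in glass jars in randomized order with two-minute intervals.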

[3] = test system: 1-octen-3-ol mushroom/earthy/fungal odor perception; assay: Human sensory performance of test compounds with and without 1-octen-3-ol; type: in vivo
[4] = target: 1-octen-3-ol receptors OR2W1, Olfr93, Olfr120, Olfr398; assay: Antagonists of 1-octen-3-ol receptors (Example 11); type: cell-based, mouse and human; set-up: Inhibition(%): concentration or dose not given beside the values; conditions: Table 19
Olfr743 = Olfr743 (Mus musculus, UniProt L7N1Y2); assay: Indole antagonist dose-response, cAMP HTRF in HEK293T, vs indole EC80; type: cell-based; conditions: Table 23
Description: (§1) Functional dose-response experiments were performed to identify compounds capable of antagonizing indole-sensitive receptors previously identified (U.S. Pat. No. 9,914,760 B2). Using a cell-based assay, mouse receptor Olfr738, Olfr739, Olfr740, Olfr741, 0fr742, Olfr743, Olfr744, Olfr746, Olfr748 and Olfr749 were tested in an HEK293T cell line wherein the endogenous RTP1 gene has been activated and the odorant receptor chaperone was expressed (described in WO2016201153A1). The receptor genes were tagged with a Flag-Rho tag combination. Receptor genes were co-transfected with the canonical olfactory human G-protein alpha subunit Golf gene. Co-expression of the human Golf activates the Gs transduction pathway that leads to an internal cAMP increase upon binding to the appropriate ligand (indole here). Odorant-induced activity was detected by measuring the cAMP increase in the cytosol using an HTRF based kit (CisBio, cAMP dynamic 2 kit, cat. 62AM4PEJ). The receptors were exposed to binary mixtures of increasing concentrations of the test compounds in the presence of a potent activation concentration of indole (EC80) for each receptor. […] All the compounds listed decreased the indole induced activity of at least one receptor.

Olfr744 = target: T1, Olfr744 (Mus musculus, UniProt Q7TRM0); assay: as above; type: cell-based; conditions: Table 23
T1 construct: Flag; Rho tag; expressed in transfected cells
T1 sequence (Q7TRM0 1-323): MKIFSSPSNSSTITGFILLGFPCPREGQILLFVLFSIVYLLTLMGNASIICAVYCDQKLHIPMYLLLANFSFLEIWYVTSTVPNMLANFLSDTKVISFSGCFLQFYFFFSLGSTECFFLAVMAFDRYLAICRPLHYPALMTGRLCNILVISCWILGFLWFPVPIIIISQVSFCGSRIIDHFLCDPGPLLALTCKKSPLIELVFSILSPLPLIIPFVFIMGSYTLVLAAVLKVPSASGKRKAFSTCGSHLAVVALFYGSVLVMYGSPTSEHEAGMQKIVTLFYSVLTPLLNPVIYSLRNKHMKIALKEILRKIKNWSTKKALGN
Description: as §1

Olfr749 = target: T2, Olfr749 (Mus musculus, UniProt E9Q438); assay: as above; type: cell-based; conditions: Table 23
T2 construct: Flag; Rho tag; expressed in transfected cells
T2 sequence (E9Q438 1-313): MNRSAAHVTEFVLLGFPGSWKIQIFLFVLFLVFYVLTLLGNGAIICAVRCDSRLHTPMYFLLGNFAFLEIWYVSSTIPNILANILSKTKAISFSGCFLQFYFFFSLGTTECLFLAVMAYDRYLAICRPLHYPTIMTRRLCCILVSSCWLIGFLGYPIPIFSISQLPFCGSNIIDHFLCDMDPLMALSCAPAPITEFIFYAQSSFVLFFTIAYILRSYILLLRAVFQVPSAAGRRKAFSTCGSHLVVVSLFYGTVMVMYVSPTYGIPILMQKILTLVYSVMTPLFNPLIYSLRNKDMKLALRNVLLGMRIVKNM
Description: as §1

[5] = test system: OR11A1, or the OR2M3 olfactory receptor; assay: Geonol olfactory receptor antagonist cell-based screening, inhibitory dose-response vs geonol EC80; set-up: species or system human; conditions: geonol at EC80; read-out: IC50
Olfr738 = Olfr738 (Mus musculus, UniProt L7N1X7); assay: Indole antagonist dose-response, cAMP HTRF in HEK293T, vs indole EC80; type: cell-based; conditions: vs indole EC80; for IC50: read-out: Olfr738 IC50
Description: (§2) Using a cell-based assay, mouse receptor Olfr738, Olfr739, Olfr740, Olfr741, 0fr742, Olfr743, Olfr744, Olfr746, Olfr748 and Olfr749 were tested in an HEK293T cell line wherein the endogenous RTP1 gene has been activated and the odorant receptor chaperone was expressed (described in WO2016201153A1). The receptor genes were tagged with a Flag-Rho tag combination. Receptor genes were co-transfected with the canonical olfactory human G-protein alpha subunit Golf gene. Co-expression of the human Golf activates the Gs transduction pathway that leads to an internal cAMP increase upon binding to the appropriate ligand (indole here). Odorant-induced activity was detected by measuring the cAMP increase in the cytosol using an HTRF based kit (CisBio, cAMP dynamic 2 kit, cat. 62AM4PEJ).

Olfr740 = Olfr740 (Mus musculus, UniProt E9PV79); assay: as above; type: cell-based; conditions: vs indole EC80; for IC50: read-out: Olfr740 IC50; for Emax: HEK-293T, read-out: Olfr740 % Inhibition
Description: as §2

Olfr741 = Olfr741 (Mus musculus, UniProt L7N1Y5); assay: as above; type: cell-based
Description: as §2

Olfr742 = Olfr742 (Mus musculus, UniProt A2RTP5); assay: as above; type: cell-based; conditions: vs indole EC80; for IC50: read-out: Olfr742 IC50; for Emax: HEK-293T, read-out: Olfr742 % Inhibition
Description: as §2

Olfr739 = Olfr739 (Mus musculus, UniProt E9Q1P0); assay: as above; type: cell-based
Description: as §1

[6] = target: T3, OR51E1 olfactory receptor (Homo sapiens, UniProt Q8TCB6); assay: Butyric acid olfactory receptor antagonist cell-based dose-response vs butyric acid EC80; conditions: butyric acid at EC80; Table 5
T3 construct: expressed in transfected cells
T3 sequence (Q8TCB6 1-318): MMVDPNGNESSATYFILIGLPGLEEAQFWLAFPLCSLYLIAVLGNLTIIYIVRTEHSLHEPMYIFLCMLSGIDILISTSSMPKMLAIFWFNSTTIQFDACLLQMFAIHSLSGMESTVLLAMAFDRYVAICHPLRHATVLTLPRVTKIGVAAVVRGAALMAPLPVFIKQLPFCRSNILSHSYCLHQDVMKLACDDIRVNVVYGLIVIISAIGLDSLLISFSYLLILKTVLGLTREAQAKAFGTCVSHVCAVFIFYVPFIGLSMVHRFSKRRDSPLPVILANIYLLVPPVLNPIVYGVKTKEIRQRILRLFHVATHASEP

[7] = test system: geonol receptors Olfr339, Olfr1487, Olfr1A1, OR11A1, Olfr96; assay: Antagonists of geonol receptors (Example 11); type: cell-based, mouse and human; set-up: Inhibition(%): concentration or dose not given beside the values; conditions: Table 18
Olfr746 = target: T4, Olfr746 (Mus musculus, UniProt E9Q840); assay: Indole antagonist dose-response, cAMP HTRF in HEK293T, vs indole EC80; type: cell-based; conditions: Table 23
T4 construct: Flag; Rho tag; expressed in transfected cells
T4 sequence (E9Q840 1-314): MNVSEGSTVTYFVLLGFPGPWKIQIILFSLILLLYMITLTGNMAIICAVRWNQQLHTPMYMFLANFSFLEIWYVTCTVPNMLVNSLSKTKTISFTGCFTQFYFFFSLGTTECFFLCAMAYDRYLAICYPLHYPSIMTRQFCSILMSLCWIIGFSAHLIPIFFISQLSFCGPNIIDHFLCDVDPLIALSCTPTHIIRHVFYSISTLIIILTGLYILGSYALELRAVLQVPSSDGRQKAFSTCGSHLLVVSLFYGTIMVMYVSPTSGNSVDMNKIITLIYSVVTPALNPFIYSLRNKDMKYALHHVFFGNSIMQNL
Description: as §1

Olfr748 = Olfr748 (Mus musculus, UniProt E9Q9Z0); assay: as above; type: cell-based; conditions: Table 23
Description: as §2

[8] = Low Dilution Test Compound + Geonol (0.1%)
[9] = Medium Dilution Test Compound + Geonol (0.1%)
[10] = Table 22, second listing of the same compounds
[11] = Table 22, first listing (r7-r45)

Chain of Olfr741 (L7N1Y5 entry or part of it): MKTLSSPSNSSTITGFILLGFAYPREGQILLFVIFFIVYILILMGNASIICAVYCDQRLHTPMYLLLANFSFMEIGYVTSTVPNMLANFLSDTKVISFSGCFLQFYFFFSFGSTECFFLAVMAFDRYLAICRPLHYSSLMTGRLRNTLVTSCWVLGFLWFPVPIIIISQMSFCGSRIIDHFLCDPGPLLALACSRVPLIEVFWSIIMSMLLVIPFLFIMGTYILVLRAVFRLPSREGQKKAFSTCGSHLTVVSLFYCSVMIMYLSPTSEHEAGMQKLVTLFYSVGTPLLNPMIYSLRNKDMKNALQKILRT
Chain of Olfr742 (A2RTP5 entry or part of it): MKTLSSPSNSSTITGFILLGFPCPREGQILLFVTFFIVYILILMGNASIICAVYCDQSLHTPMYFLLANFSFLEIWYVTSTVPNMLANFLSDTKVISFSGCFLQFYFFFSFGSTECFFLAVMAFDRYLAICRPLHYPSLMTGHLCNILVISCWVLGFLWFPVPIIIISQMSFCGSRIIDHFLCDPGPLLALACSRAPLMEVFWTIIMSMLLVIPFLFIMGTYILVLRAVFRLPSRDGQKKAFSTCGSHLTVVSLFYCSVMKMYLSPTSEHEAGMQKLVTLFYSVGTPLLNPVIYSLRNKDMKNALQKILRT
Chain of Olfr743 (L7N1Y2 entry or part of it): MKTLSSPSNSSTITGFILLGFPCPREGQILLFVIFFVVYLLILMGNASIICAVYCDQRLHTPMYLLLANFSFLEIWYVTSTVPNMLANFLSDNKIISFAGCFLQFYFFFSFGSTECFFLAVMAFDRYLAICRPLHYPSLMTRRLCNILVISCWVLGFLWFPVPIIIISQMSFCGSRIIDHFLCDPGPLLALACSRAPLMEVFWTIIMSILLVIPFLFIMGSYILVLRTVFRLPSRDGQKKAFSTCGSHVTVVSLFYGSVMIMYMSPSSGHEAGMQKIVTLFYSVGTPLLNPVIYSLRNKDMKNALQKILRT
Chain of Olfr738 (L7N1X7 entry or part of it): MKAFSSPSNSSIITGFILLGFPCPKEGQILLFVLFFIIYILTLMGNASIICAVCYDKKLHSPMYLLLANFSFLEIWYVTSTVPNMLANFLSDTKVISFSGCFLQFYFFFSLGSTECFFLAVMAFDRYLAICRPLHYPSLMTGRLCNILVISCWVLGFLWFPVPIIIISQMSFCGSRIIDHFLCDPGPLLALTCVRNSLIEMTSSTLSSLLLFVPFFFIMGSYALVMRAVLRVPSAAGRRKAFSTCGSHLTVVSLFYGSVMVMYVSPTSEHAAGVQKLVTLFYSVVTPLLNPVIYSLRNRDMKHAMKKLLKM
Chain of Olfr739 (E9Q1P0 entry or part of it): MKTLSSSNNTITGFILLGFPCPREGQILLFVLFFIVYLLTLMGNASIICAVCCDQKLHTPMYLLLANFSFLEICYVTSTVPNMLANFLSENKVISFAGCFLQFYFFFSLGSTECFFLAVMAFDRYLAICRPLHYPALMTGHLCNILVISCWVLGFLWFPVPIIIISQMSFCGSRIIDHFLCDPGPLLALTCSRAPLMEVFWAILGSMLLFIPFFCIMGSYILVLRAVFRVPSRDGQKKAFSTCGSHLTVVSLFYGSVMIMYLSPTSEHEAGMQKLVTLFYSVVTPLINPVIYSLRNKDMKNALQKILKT
Chain of Olfr740 (E9PV79 entry or part of it): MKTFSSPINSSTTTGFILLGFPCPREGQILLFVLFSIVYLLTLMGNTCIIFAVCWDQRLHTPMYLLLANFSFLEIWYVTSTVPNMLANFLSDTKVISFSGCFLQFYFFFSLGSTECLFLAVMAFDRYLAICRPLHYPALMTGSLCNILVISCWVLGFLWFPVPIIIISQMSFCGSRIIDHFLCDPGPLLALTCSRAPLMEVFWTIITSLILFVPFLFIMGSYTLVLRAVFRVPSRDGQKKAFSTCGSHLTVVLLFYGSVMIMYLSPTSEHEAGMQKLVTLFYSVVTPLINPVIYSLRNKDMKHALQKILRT
Chain of Olfr748 (E9Q9Z0 entry or part of it): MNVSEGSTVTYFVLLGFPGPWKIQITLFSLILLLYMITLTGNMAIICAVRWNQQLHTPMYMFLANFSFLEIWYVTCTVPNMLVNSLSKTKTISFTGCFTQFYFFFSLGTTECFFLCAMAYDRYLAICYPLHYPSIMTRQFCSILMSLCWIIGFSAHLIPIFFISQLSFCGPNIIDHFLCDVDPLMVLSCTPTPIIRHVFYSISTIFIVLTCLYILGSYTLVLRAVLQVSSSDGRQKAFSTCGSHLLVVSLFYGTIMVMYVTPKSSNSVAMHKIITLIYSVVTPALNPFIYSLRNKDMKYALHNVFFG

Row | Molecule | IC50 (Olfr743) | Olfr743 % Inhibition (Olfr743) | IC50 (Olfr744) | Olfr744 % Inhibition (Olfr744) | IC50 (Olfr749) | Olfr738 % Inhibition (Olfr738; Table 22, first listing) | Olfr738 % Inhibition (Olfr738; [10]) | IC50 (Olfr741; Table 22, first listing) | Olfr741 % Inhibition (Olfr741; Table 22, first listing) | Olfr739 % Inhibition (Olfr739; Table 22, first listing) | Olfr739 % Inhibition (Olfr739; [10]) | Emax (Olfr742; [10]) | IC50 (Olfr738; [11]) | Emax (Olfr740; Table 22, first listing) | IC50 (Olfr740; [11]) | other results
1 | 4-(2,6,6-trimethylcyclohexen-1-yl)but-3-en-2-one; 4-(2,6,6-trimethylcyclohex-2-en-1-yl)but-3-en-2-one | 275 µM and 159 µM | 114.78% and 112.64% | 125 µM and 159 µM | 78.23% and 77.99% | 75.8 µM and 76 µM |  |  |  |  |  |  |  |  |  |  | % Remaining in human sensory tests [1]: 59* %; % Earthy/Moss Odor Remaining [2, 8]: 73.40%; % Earthy/Moss Odor Remaining [2, 9]: 70.30%; % Earthy/Moss Odor [2]: 27.10%; % Mushroom/Earthy/Fungal Odor Remaining ([3]; Low Dilution Test Compound + 1-octen-3-ol (0.15%)): 94.80%; % Mushroom/Earthy/Fungal Odor Remaining ([3]; Medium Dilution Test Compound + 1-octen-3-ol (0.15%)): 73.90%; % Mushroom/Earthy/Fungal Odor ([3]; Test Compound Only): 20.30%; IC50 [4]: 146 µM; Inhibition(%) [4]: 79%
2 | 6(8)-ISOPROPYLQUINOLINE [isopropyl quinoline] | 119 µM | 39.62% | 102 µM | 116.59% |  | 20.66% | 39.62% | 91.6 µM | 54.55% | 74.96% | 116.59% |  |  |  |  | IC50 [5]: 400 µM; % Remaining in human sensory tests [1]: 110%; % Earthy/Moss Odor Remaining [2, 8]: 99.60%; % Earthy/Moss Odor Remaining [2, 9]: 104.70%; % Earthy/Moss Odor [2]: 54.70%; IC50 (Olfr738; Table 22, first listing): 120 µM; Olfr740 % Inhibition (Olfr740; Table 22, first listing): 148.06%; IC50 (Olfr740; Table 22, first listing): 40.9 µM; Olfr742 % Inhibition (Olfr742; Table 22, first listing): 72.34%; IC50 (Olfr742; Table 22, first listing): 86.6 µM; IC50 (Olfr739; Table 22, first listing): 61.3 µM
3 | CC1(C)CCCC2(C)CC(=O)CCC12 (racemic) |  |  |  |  |  |  | 123.10% |  |  |  | 107.89% | 97% |  |  |  | Emax (Olfr740; [10]): 81.4%; IC50 (Olfr741; [10]): 106 µM; Olfr741 % Inhibition (Olfr741; [10]): 65.60%
4 | C/C=C/C(=O)C1C(C)=CCCC1(C)C (racemic) [(+−)-(2E)-1-(2,6,6-trimethyl-2-cyclohexen-1-yl)-2-buten-1-one] |  |  |  |  | 156 µM | 12.19% |  | 110 µM | 75.65% |  |  | 47.9% | 99.8 µM | 115% | 137 µM | IC50 [6]: 50.5 µM; Emax (Olfr742; Table 22, first listing): 113%; IC50 (Olfr742; [11]): 95.4 µM; Olfr749 % Inhibition (Olfr749): 47.86%
5 | C=CCCC(=O)C1=CCCC(C)(C)C1 [1-(5,5-dimethylcyclohexen-1-yl)pent-4-en-1-one] |  |  |  |  |  |  |  |  |  |  |  |  |  | 91.2% | 63.6 µM | IC50 [7]: 220 µM; Inhibition(%) [7]: 40%; Emax (Olfr740; [10]): 58.9%; IC50 (Olfr746): 224 µM; Olfr746 % Inhibition (Olfr746): 58.87%
6 | c1nc2c(o1)CCCCCCCCCC2 [4,5,6,7,8,9,10,11,12,13-decahydrocyclododeca[d][1,3]oxazole] | 58.9 µM | 31.68% | 117 µM | 38.37% | 70 µM | 93.54% | 31.68% | 33.7 µM | 62.10% | 61.91% | 38.37% | 57.9% | 9.26 µM | 102% | 5.52 µM | IC50 [4]: 38 µM; Inhibition(%) [4]: 77%; IC50 (Olfr741; [10]): 216 µM; Olfr741 % Inhibition (Olfr741; [10]): 12.61%; Emax (Olfr742; Table 22, first listing): 59.7%; IC50 (Olfr742; [11]): 26.8 µM; IC50 (Olfr748): 216 µM; Olfr748 % Inhibition (Olfr748): 12.61%; IC50 (Olfr739; [11]): 24.1 µM; Olfr749 % Inhibition (Olfr749): 57.85%
7 | CC(C)(C)C1CCC(=O)CC1 [4-t-butylcyclohexanone] |  |  | 175 µM | 148.19% |  | 52.44% |  |  |  | 60.32% | 148.19% |  | 43.1 µM | 213% | 10.6 µM | IC50 (Olfr739; [11]): 69.9 µM
